In patent US20040067850A1, “Agricultural and horticultural composition” (priority 2001, published 2004):

Test system: Oat
Test: Gotland field trial, foliage application: manganese deficiency assessment in oat
Assay type: in vivo
Details: 4 kg/ha, scale 0 = no deficiency, 100 = all plants
Protocol: Oat was grown on a location on Gotland, Sweden, with severe manganese conditions. […] The invention, MicroplanTM Manganese (150 gram manganese complex bound per liter, amino acids used were methionin and lysine, respectively), was applied to the foliage at growing stage DC 25 (early tillering). […] The same amount of manganese was applied. The assessment, shown in the table 7 below, were done one week and two weeks after application. According to the following procedure: Manganese deficiency 0-100, scale 0=no deficiency 100=all plants/leaves showing deficiency (=yellow leaves).

O=S(=O)([O-])[O-].[Mn+2] [Manganese sulphate]
Manganese deficiency 0-100 (plant/leaf area with symptoms) (6/7-2001): 28 | Manganese deficiency 0-100 (plant/leaf area with symptoms) (16/7-2001): 25
